The values that follow come from ChEMBL document CHEMBL5346907, “Discovery of a novel oral type Ⅰ CDK8 inhibitor against acute myeloid leukemia” (Eur J Med Chem, 2023).

Active and inactive are the calls of the source. No cut-off for these calls is given here.

Data set [1] in a line: Cmax in Sprague-Dawley rat at 10 mg/kg, po. The format is ADME, organism-based. Details: dose 10 mg/kg, route po. The following applies: in vivo.
Another data set relates to MDA-MB-231. The data set can be described thus: Antiproliferative activity against human MDA-MB-231 cells incubated for 48 hrs by CCK8 assay. The format is functional. In general terms: Formazan colour is commonly taken as a measure of viable cells.
The subject of the next data set is HT-29. The data set can be described thus: Antiproliferative activity against human HT-29 cells incubated for 48 hrs by CCK8 assay. The format is functional.
Data set [2] addresses CDK12/Cyclin K (Homo sapiens) (UniProt O75909+Q9NYV4). The data set can be described thus: Inhibition of CDK12/Cyclin K (unknown origin) at 1 uM preincubated for 10 mins followed by substrate addition measured for 60 to 120 mins by HTRF assay relative to control. The format is protein-complex assay. To be noted: time 70-130 min. On the technique in general: TR-FRET usually uses a lanthanide donor and a delayed reading to cut background.

Data set [3] relates to HL-60. The data set can be described thus: Induction of apoptosis in human HL-60 cells assessed as early apoptosis cells at 5 uM incubated for 48 hrs by annexin V-FITC/PI staining based flow cytometry (reference value: 2.08 %). In kind it is functional. (In general: In flow cytometry, cells or beads pass a laser one at a time.)
The species named for a further data set is Homo sapiens. The data set can be described thus: Inhibition of FYN a (unknown origin) at 1 uM preincubated for 10 mins followed by substrate addition measured for 60 to 120 mins by HTRF assay relative to control. The following applies: time 70-130 min.
The target of data set [4] is Proto-oncogene tyrosine-protein kinase ROS (Homo sapiens) (UniProt P08922). The data set can be described thus: Inhibition of ROS (unknown origin) at 1 uM preincubated for 10 mins followed by substrate addition measured for 60 to 120 mins by HTRF assay relative to control. The following applies: time 70-130 min.
Proto-oncogene tyrosine-protein kinase ROS (Homo sapiens), sequence (P08922 whole entry): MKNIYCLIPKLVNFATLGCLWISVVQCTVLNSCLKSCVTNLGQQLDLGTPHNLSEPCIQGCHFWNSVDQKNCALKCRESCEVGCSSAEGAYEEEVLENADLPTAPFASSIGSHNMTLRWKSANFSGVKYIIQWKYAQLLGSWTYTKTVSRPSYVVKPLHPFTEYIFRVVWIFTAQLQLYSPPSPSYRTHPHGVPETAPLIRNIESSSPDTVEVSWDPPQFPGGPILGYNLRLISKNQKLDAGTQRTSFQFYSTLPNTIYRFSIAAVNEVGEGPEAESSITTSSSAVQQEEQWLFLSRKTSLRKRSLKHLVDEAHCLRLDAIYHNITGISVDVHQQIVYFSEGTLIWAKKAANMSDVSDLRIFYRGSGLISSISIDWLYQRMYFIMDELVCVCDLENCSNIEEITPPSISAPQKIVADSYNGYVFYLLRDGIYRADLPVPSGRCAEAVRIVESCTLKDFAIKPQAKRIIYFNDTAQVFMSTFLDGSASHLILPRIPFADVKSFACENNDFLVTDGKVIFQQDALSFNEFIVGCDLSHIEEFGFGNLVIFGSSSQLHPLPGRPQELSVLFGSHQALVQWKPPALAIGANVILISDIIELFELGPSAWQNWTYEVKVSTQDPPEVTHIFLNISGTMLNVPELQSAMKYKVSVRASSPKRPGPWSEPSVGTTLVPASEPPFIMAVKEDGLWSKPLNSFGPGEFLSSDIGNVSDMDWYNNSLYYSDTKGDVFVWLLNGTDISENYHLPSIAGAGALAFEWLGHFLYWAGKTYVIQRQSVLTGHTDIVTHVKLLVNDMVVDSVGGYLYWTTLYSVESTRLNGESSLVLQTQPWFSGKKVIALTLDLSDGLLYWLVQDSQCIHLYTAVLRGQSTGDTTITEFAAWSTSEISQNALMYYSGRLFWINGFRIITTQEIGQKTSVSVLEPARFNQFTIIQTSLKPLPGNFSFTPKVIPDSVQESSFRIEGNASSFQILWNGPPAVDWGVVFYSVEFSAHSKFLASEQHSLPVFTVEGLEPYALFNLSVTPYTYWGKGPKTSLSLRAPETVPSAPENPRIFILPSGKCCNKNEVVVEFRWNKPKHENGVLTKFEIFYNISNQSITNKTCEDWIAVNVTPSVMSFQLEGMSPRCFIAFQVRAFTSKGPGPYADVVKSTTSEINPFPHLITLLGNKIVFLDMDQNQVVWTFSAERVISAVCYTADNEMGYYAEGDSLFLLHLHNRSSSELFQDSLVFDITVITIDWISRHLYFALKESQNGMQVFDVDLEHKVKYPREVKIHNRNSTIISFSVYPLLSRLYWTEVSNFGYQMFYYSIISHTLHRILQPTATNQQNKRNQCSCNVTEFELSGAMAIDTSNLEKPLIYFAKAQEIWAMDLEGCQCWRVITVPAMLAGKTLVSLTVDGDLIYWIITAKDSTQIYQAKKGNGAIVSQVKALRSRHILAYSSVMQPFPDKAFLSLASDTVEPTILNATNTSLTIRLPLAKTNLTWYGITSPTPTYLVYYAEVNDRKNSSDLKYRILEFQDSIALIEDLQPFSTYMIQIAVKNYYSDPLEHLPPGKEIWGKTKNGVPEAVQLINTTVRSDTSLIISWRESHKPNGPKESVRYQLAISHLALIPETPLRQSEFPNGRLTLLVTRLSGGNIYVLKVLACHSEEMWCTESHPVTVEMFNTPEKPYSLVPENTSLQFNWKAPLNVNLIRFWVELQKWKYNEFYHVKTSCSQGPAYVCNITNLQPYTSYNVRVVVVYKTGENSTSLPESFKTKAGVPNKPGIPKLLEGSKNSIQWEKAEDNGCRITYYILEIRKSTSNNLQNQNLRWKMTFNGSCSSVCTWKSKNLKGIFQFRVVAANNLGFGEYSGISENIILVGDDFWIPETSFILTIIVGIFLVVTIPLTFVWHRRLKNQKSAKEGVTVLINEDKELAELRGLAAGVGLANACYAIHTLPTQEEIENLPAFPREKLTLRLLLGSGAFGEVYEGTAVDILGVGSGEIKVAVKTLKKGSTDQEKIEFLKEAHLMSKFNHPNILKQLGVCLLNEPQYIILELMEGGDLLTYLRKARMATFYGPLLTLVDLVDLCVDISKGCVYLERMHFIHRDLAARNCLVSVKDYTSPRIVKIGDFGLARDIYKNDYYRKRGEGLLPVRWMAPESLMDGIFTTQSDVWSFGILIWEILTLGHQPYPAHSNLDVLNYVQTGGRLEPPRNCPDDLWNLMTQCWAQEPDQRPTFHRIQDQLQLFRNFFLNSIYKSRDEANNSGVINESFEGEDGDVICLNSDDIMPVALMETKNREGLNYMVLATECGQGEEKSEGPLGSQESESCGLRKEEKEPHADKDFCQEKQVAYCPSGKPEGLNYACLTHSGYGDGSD
A short description of data set [5]: Clearance in Sprague-Dawley rat at 2 mg/kg, iv. The format is ADME, organism-based. To be noted: in vivo.
Data set [6] concerns the target CDK8/Cyclin C (Homo sapiens) (UniProt P49336+P24863). The data set is described as follows: Inhibition of CDK8/Cyclin C (unknown origin) at 1 uM preincubated for 10 mins followed by substrate addition measured for 60 to 120 mins by HTRF assay relative to control. The format is protein-complex assay. To be noted: time 70-130 min.
The target in data set [7] is Hepatocyte growth factor receptor (Homo sapiens) (UniProt P08581). The data set can be described thus: Inhibition of MET (unknown origin) at 1 uM preincubated for 10 mins followed by substrate addition measured for 60 to 120 mins by HTRF assay relative to control. The following applies: time 70-130 min.
Hepatocyte growth factor receptor (Homo sapiens), sequence (P08581 whole entry): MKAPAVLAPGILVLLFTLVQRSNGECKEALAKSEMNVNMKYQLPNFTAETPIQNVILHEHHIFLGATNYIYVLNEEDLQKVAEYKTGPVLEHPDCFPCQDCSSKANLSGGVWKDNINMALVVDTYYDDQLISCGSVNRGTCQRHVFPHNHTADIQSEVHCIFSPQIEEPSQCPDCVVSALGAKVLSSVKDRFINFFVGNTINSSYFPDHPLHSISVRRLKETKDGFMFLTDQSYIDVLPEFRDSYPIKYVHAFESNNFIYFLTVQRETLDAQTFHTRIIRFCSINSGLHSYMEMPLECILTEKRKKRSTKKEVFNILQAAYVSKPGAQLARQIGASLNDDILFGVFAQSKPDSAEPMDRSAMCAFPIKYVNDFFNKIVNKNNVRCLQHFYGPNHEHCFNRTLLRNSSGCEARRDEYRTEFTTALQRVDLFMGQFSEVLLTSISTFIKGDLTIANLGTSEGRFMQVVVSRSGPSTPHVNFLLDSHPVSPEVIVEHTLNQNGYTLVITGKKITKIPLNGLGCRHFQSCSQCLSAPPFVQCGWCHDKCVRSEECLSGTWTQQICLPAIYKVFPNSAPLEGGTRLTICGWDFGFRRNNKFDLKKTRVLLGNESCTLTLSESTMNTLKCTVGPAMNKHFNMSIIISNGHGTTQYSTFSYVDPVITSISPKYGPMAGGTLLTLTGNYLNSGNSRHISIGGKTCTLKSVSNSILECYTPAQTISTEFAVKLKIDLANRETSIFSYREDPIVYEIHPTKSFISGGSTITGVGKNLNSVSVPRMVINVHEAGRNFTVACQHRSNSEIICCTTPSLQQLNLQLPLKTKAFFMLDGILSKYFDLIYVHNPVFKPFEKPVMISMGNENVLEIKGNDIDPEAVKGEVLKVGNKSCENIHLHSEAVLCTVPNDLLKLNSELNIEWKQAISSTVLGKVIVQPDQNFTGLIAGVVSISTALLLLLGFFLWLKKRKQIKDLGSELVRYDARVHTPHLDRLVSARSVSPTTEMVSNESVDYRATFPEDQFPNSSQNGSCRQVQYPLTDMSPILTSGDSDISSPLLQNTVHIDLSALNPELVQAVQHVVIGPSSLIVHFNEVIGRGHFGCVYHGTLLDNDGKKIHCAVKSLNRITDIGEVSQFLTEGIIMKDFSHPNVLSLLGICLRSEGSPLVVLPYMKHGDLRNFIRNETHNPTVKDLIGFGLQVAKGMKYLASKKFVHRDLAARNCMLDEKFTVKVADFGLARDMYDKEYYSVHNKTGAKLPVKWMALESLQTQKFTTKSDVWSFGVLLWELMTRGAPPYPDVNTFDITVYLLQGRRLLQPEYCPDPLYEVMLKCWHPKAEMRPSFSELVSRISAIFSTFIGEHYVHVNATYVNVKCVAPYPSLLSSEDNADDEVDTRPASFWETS
For data set [8], the target named is Ephrin type-A receptor 2 (Homo sapiens) (UniProt P29317). The data set can be described thus: Inhibition of EPHA2 (unknown origin) at 1 uM preincubated for 10 mins followed by substrate addition measured for 60 to 120 mins by HTRF assay relative to control. The following applies: time 70-130 min.
For data set [9], the target named is CDK6/cyclin D1 (Homo sapiens) (UniProt P24385+Q00534). The data set is described as follows: Inhibition of CDK6/Cyclin D1 (unknown origin) at 1 uM preincubated for 10 mins followed by substrate addition measured for 60 to 120 mins by HTRF assay relative to control. To be noted: time 70-130 min. The format is protein-complex assay.
The target in data set [10] is Tyrosine-protein kinase SRMS (Homo sapiens) (UniProt Q9H3Y6). The data set is described as follows: Inhibition of SRM (unknown origin) at 1 uM preincubated for 10 mins followed by substrate addition measured for 60 to 120 mins by HTRF assay relative to control. To be noted: time 70-130 min.
For data set [11], the target named is Insulin receptor (Homo sapiens) (UniProt P06213). The data set is described as follows: Inhibition of INSR (unknown origin) at 1 uM preincubated for 10 mins followed by substrate addition measured for 60 to 120 mins by HTRF assay relative to control. To be noted: time 70-130 min.
Insulin receptor (Homo sapiens), sequence (P06213 28-758 limits assumed): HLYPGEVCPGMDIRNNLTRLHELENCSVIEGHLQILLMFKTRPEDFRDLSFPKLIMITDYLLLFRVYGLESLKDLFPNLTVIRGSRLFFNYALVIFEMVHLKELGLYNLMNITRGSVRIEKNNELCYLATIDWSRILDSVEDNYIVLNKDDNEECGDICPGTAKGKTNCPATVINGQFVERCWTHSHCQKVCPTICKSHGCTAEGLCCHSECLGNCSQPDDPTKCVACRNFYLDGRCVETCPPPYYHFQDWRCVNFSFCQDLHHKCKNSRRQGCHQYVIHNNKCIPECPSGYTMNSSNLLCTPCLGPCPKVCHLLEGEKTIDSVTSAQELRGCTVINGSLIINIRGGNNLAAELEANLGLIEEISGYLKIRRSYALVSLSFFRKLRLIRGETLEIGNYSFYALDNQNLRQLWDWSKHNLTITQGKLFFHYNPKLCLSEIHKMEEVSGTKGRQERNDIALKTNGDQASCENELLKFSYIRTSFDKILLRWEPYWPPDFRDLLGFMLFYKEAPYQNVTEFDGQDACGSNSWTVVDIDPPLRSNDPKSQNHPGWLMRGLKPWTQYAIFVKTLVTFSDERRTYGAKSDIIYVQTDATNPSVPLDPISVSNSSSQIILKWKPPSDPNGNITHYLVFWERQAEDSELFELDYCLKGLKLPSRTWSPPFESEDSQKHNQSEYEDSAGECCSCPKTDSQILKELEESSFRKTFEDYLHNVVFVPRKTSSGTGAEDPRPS
Insulin receptor (Homo sapiens), sequence (P06213 763-1382 limits assumed): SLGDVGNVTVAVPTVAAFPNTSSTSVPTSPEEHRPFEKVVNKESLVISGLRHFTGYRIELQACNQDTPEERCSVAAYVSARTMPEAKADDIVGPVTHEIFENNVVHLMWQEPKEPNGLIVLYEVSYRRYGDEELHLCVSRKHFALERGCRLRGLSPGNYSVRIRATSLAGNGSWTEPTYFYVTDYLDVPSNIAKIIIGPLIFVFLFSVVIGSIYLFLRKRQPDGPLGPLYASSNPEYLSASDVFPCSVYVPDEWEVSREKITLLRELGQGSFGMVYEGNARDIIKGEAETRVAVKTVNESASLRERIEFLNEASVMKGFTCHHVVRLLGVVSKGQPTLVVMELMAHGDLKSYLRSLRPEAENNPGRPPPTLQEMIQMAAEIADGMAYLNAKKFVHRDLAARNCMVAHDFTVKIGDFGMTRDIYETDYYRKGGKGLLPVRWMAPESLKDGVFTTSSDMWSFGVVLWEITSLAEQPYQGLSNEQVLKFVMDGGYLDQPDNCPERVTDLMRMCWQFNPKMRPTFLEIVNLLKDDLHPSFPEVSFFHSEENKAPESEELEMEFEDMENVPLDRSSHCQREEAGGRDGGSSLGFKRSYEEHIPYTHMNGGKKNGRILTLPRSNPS
The test system of data set [12] is HL-60. The data set can be described thus: Induction of apoptosis in human HL-60 cells assessed as viable cells at 5 uM incubated for 48 hrs by annexin V-FITC/PI staining based flow cytometry (reference value: 96.5 %). The format is functional. The following applies: read-out: Activity.
The nature of data set [13]: MRT in Sprague-Dawley rat at 2 mg/kg, iv. In kind it is ADME, organism-based. The following applies: in vivo.
Data set [14] can be described thus: Tmax in Sprague-Dawley rat at 2 mg/kg, iv. In kind it is ADME, organism-based. To be noted: in vivo.
Data set [15] concerns HL-60. The data set can be described thus: Effect on cell cycle at S phase in human HL-60 cells at 1 to 10 uM incubated for 48 hrs by […]PI staining based flow cytometry. The format is functional. The following applies: dose 1-10 µM.
Data set [16] has as its target Tyrosine-protein kinase FRK (Homo sapiens) (UniProt P42685). The data set can be described thus: Inhibition of FRK (unknown origin) at 1 uM preincubated for 10 mins followed by substrate addition measured for 60 to 120 mins by HTRF assay relative to control. The following applies: time 70-130 min.

Usually Cmax stands for the maximum level reached in the sampled fluid or tissue. A word on the GI50: it is the concentration that inhibits growth by half. A low value points to greater sensitivity of the cells. What is called inhibition is the change of the read-out against control, counted positive when it falls. As a reminder, the clearance is the volume of plasma or blood freed of the substance per unit of time. A higher clearance goes with efficient removal. In general, MRT refers to the average time that molecules of a dose stay in the body. A word on the Tmax: it is the time at which the peak concentration occurs. As for `NC(=O)c1cccc(-c2cnc3[nH]ccc3c2)c1`, in [1], the peak level (Cmax) was 206 ng/mL. Moreover, the GI50 in the data set on MDA-MB-231 and with HT-29 was more than 50 µM in each case. The inhibition turned out to be 0.16% in [2]; 0% in the data set filed under Homo sapiens; 8.63% in data set [4]; 38.9% in data set [6]; 0% in data set [7]; 0% in data set [8]. The inhibition in data set [9] is 0.37%; in data set [10], 0%; in [11], 7.74%; in data set [16], 3.82%. The Activity in the data set with HL-60 [3] worked out at 22.4%. Besides, in data set [5], the clearance was 118 mL/min/kg. In addition, in the data set on HL-60 [12], the viability at 5 µM is 9.73%. For the same compound, in data set [13], the MRT stood at 1.5 h. For the same compound, in data set [14], the Tmax worked out at 4.98 min. The result with HL-60 [15] was inactive.
